In ChEMBL document CHEMBL1201862, “PubChem BioAssay data set” (2004):
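All cell lines were grown in 96-well plates and treated with compound for 48 hours. GI50 is the concentration that inhibits growth by half.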 Active and inactive are the calls of the source. No stated cut-off is given here; in the data, active = GI50 up to about 1.1 µM and inactive = higher.

Columns and labels:
Assay in all cases: growth of human tumour cells (NCI), 48 h
[1] = test system: EKVX
[2] = test system: M14
[3] = test system: SNB-75
[4] = test system: SR
[5] = test system: NCI-H522
[6] = test system: MDA-MB-231
[7] = test system: SNB-19
[8] = test system: RXF 393
[9] = test system: T47D
[10] = test system: RPMI-8226
[11] = test system: Hs-578T
[12] = test system: Malme-3M
[13] = test system: HCT-116
[14] = test system: CCRF-CEM
[15] = test system: DU-145
[16] = test system: SW-620
[17] = test system: HOP-92
[18] = test system: A549
[19] = test system: PC-3

Measured: GI50

CCC(=O)NC(Nc1ccc(O)cc1)(C(F)(F)F)C(F)(F)F
inactive: [1] > 100 µM | [2] 80.5 µM | [3] > 100 µM | [4] 36.5 µM | [5] 27.4 µM | [6] 73.8 µM | [7] > 100 µM | [8] 28.8 µM | [9] 49.4 µM | [10] 33.3 µM | [11] > 100 µM | [12] 42.2 µM | [13] 46.3 µM | [14] 19.6 µM | [15] > 100 µM

CCOC(=O)C1(CO)CSCCSC1
inactive: [3] > 100 µM | [4] > 100 µM | [5] > 100 µM | [6] > 100 µM | [7] > 100 µM | [16] > 100 µM | [8] > 100 µM | [11] > 100 µM | [13] > 100 µM | [17] > 100 µM | [18] > 100 µM | [19] > 100 µM | [14] > 100 µM | [15] > 100 µM

O=C(/C=C/c1ccc(O)c(O)c1)NCCc1ccc(-c2ccccc2)cc1
inactive: [1] > 100 µM | [2] 33.4 µM | [3] > 100 µM | [5] > 100 µM | [7] > 100 µM | [16] > 100 µM | [8] 57.1 µM | [9] > 100 µM | [10] 39.4 µM | [11] > 100 µM | [12] 17.9 µM | [13] 27.3 µM | [18] > 100 µM | [19] > 100 µM | [14] 26.5 µM | [15] > 100 µM

O=C1NC(=O)C(CC(C(=O)C(=O)Nc2ccccc2Cl)C(=O)c2ccc3ccccc3c2)C(=O)N1 (stereo not given)
inactive: [1] > 100 µM | [2] > 100 µM | [3] > 100 µM | [5] > 100 µM | [6] > 100 µM | [7] > 100 µM | [16] > 100 µM | [8] > 100 µM | [11] > 100 µM | [13] > 100 µM | [17] 61.9 µM | [18] > 100 µM | [19] > 100 µM | [14] > 100 µM | [15] > 100 µM

CC1(C)C=[N+]([O-])C(C)(C)N1O
inactive: [1] > 10 µM | [2] > 10 µM | [4] > 10 µM | [5] > 10 µM | [6] > 10 µM | [7] > 10 µM | [16] > 10 µM | [8] > 10 µM | [9] > 10 µM | [10] > 10 µM | [12] > 10 µM | [13] > 10 µM | [17] > 10 µM | [18] > 10 µM | [19] > 10 µM | [14] > 10 µM | [15] > 10 µM

C/C(CC(=O)Nc1ccc(Cl)cc1)=N\NC(=O)C[n+]1ccccc1
inactive: [1] > 100 µM | [2] > 100 µM | [3] > 100 µM | [5] 75 µM | [16] > 100 µM | [8] > 100 µM | [10] > 100 µM | [12] > 100 µM | [13] > 100 µM | [17] > 100 µM | [18] > 100 µM | [14] > 100 µM

Nc1nc(Cl)cc(/N=N\c2ccccc2)n1
inactive: [1] 37.2 µM | [2] 31.8 µM | [3] 38.7 µM | [4] 9.79 µM | [5] 30.6 µM | [6] 22.1 µM | [7] 45.8 µM | [16] > 100 µM | [8] 30.3 µM | [9] 32.6 µM | [10] 20.7 µM | [11] 35.9 µM | [12] 83.8 µM | [13] 16.4 µM | [17] 2.33 µM | [18] 48.2 µM | [14] 13 µM | [15] > 100 µM

COc1cc(/C=c2\sc3n(c2=O)C(c2ccc(Cl)cc2)C2=C(CCCC2C)N=3)cc(OC)c1OC (stereo not given)
inactive: [1] > 100 µM | [2] > 100 µM | [3] > 100 µM | [4] > 100 µM | [6] 25.9 µM | [7] > 100 µM | [16] > 100 µM | [8] > 100 µM | [10] > 100 µM | [11] > 100 µM | [13] > 100 µM | [17] > 100 µM | [18] > 100 µM | [19] > 100 µM | [14] > 100 µM | [15] > 100 µM

O=CC1OC(=O)c2cc(O)c(O)c(O)c2-c2c(cc(O)c(O)c2O)C(=O)OC1C(O)C(O)CO (stereo not given)
inactive: [1] > 100 µM | [2] 35 µM | [3] > 100 µM | [4] 20.6 µM | [5] 31 µM | [6] 17.1 µM | [7] > 100 µM | [16] 17.1 µM | [8] > 100 µM | [10] 26.2 µM | [11] 54 µM | [12] > 100 µM | [13] 28.1 µM | [17] > 100 µM | [18] 49.8 µM | [19] 16.2 µM | [14] 38.8 µM | [15] > 100 µM

COc1ccc(C2c3c(n(C)c(=O)n(C)c3=O)OC(N(C)C)(N(C)C)C2(F)F)cc1 (stereo not given)
inactive: [1] > 100 µM | [2] > 100 µM | [3] > 100 µM | [6] > 100 µM | [7] > 100 µM | [16] > 100 µM | [8] > 100 µM | [9] > 100 µM | [10] > 100 µM | [13] > 100 µM | [17] > 100 µM | [18] > 100 µM | [19] > 100 µM | [14] > 100 µM | [15] > 100 µM

COc1ccc(-c2cc(-c3ccc(Nc4ccnc5cc(Cl)ccc45)cc3)nc(N)c2C#N)cc1
inactive: [1] > 100 µM | [2] > 100 µM | [3] > 100 µM | [4] > 100 µM | [5] > 100 µM | [6] > 100 µM | [7] > 100 µM | [16] > 100 µM | [8] > 100 µM | [9] > 100 µM | [10] > 100 µM | [12] > 100 µM | [13] > 100 µM | [17] > 100 µM | [18] > 100 µM | [19] > 100 µM | [15] > 100 µM

CCOc1ccc(NC(=O)/C(=N\NC(C)(C)C)C2C(=O)Nc3ccccc3[S+]2[O-])cc1 (stereo not given)
inactive: [1] > 100 µM | [2] > 100 µM | [3] > 100 µM | [4] 45.1 µM | [5] > 100 µM | [7] > 100 µM | [16] > 100 µM | [8] > 100 µM | [9] > 100 µM | [10] 20.7 µM | [11] > 100 µM | [12] > 100 µM | [13] > 100 µM | [17] > 100 µM | [18] > 100 µM | [19] > 100 µM | [14] 94.6 µM | [15] > 100 µM

Cc1cccc2c1[nH]c1[nH]c(=O)[nH]c(=O)c12
inactive: [1] 83.8 µM | [2] > 100 µM | [3] 13 µM | [4] > 100 µM | [5] > 100 µM | [6] > 100 µM | [7] > 100 µM | [16] > 100 µM | [8] > 100 µM | [9] > 100 µM | [10] > 100 µM | [11] 53.3 µM | [12] > 100 µM | [13] > 100 µM | [17] > 100 µM | [18] > 100 µM | [14] > 100 µM | [15] > 100 µM

O/N=C1/CC2(N3CCOCC3)C3CC/C(=N\O)C2CC1(Cc1ccccc1)C3 (stereo not given)
inactive: [1] > 100 µM | [2] > 100 µM | [3] 36.1 µM | [4] > 100 µM | [5] > 100 µM | [6] > 100 µM | [7] > 100 µM | [16] > 100 µM | [8] 18.3 µM | [9] 67 µM | [12] > 100 µM | [13] 44.5 µM | [18] > 100 µM | [19] > 100 µM | [14] > 100 µM | [15] > 100 µM

CN1CC[C@@]2(c3cccc(O)c3)CC(=O)/C(=C/c3ccccc3)[C@H]1C2.[O-][Cl+3]([O-])([O-])O
inactive: [1] 14.9 µM | [2] 10.5 µM | [3] 2.47 µM | [4] 2.61 µM | [5] 3.93 µM | [6] 6.82 µM | [7] 7.31 µM | [16] 2.54 µM | [8] 8.17 µM | [10] 2.44 µM | [11] 3.35 µM | [12] 15 µM | [13] 3.37 µM | [17] 14.9 µM | [18] 15 µM | [19] 4.29 µM | [14] 3.12 µM | [15] 15.8 µM

COc1nn(Cc2ccccc2F)c2ccc([N+](=O)[O-])cc12
inactive: [1] > 100 µM | [2] > 100 µM | [3] > 100 µM | [4] > 100 µM | [5] > 30 µM | [6] 12.1 µM | [7] > 100 µM | [16] > 100 µM | [8] 7.48 µM | [9] > 100 µM | [11] > 45.9 µM | [12] > 85.3 µM | [13] > 100 µM | [17] 90.6 µM | [18] > 100 µM | [14] > 100 µM | [15] > 100 µM

C=CCOC1OC(CS(=O)(=O)O)C(OC(C)=O)C(OC(C)=O)C1OC(C)=O (stereo not given)
inactive: [2] > 100 µM | [3] > 100 µM | [4] > 100 µM | [7] > 100 µM | [16] > 100 µM | [8] > 100 µM | [9] > 100 µM | [10] > 100 µM | [11] > 100 µM | [12] > 100 µM | [13] > 100 µM | [17] > 100 µM | [19] > 100 µM | [14] > 100 µM | [15] > 100 µM
